Molecules are shown by their SMILES. Like-named read-outs stand apart in the source and are kept apart here.

A word on the inhibition: it is the change of the read-out against control, counted positive when it falls. A word on the IC50: it is the concentration that inhibits the measured activity by half.

The subject of the test is MCF-7 cells. Kind of test: In vitro test of cell activity (MCF-7 cells, insulin stimulation, ELISA-One fluorescence). In kind it is cell-based. As to conditions: for inhibition at 0.5 µM: conc. 0.5 μM; for inhibition at 1 µM: conc. 1 μM; for inhibition at 0.25 µM: conc. 0.25 μM. In short, it runs like this: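 Fluorescence ELISA-One read-out on cell lysates, antibody-captured 1 h at room temperature. Before lysis, MCF-7 cells (2.5×10^4/well) were pretreated 2 h with compound in serum-free medium, single dose for screening or a dilution series for IC50, then stimulated 30 min with insulin ([…] final).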
In general terms: An ELISA detects its analyte on a solid surface through an enzyme-linked reagent.

[1] abbreviates: Homo sapiens, MCF7, MCF-7 cells, read-out: % inhibition AKT.
Where [2] appears, read: Homo sapiens, MCF7, MCF-7 cells, read-out: % inhibition p70s6k.
The mark [3] stands for this setting: Homo sapiens, MCF7, MCF-7 cells, read-out: IC50 p-AKT.
[4] abbreviates: Homo sapiens, MCF7, MCF-7 cells, read-out: IC50 p-p70S6K.

`COc1ncc(-c2ccc3ncc(N)c(=O)n3c2)cc1NS(=O)(=O)c1ccc(F)cc1Cl` [compound 88]: the inhibition at 0.5 µM under setting [1] turned out to be 94.8% and the inhibition at 0.5 µM under setting [2] came out at 91%. Also, the 50% inhibitory concentration (IC50) under setting [3] was not above 50 nM and the IC50 under setting [4] was in the range of 100 to 250 nM.

On to `COc1ncc(-c2cn3c(=O)ccnc3cc2C)cc1NS(=O)(=O)c1cc(F)ccc1F` [compound 131], for which the inhibition at 0.5 µM by setting is: under setting [1], -27%; under setting [2], 4.5%.

Regarding `COc1ncc(-c2cn3c(=O)ccnc3cn2)cc1NS(=O)(=O)c1cccc(F)c1` [compound 42], the inhibition at 0.5 µM runs as follows: under setting [1], 9.1%; under setting [2], 5.1%.

As to `COc1ncc(-c2ccc3nccc(=O)n3n2)cc1NS(=O)(=O)c1cccc(F)c1` [compound 79], the inhibition at 0.5 µM is, setting by setting: under setting [1], 63.3%; under setting [2], 15.9%.

Take `COc1ncc(-c2ccc3ncc(OC)c(=O)n3c2)cc1NS(=O)(=O)c1ccccc1Cl` [compound 105]: the inhibition at 0.5 µM under setting [1] turned out to be 95.4% and the inhibition at 0.5 µM under setting [2] is 90.3%. Besides, the IC50 under setting [3] was not above 50 nM and the IC50 under setting [4] is not above 50 nM.

For `COCCOc1cnc2ccc(-c3cnc(OC)c(NS(=O)(=O)c4sc(C)nc4C)c3)cn2c1=O` [compound 176], the IC50 under setting [3] was not above 50 nM and the concentration for half-maximal inhibition (IC50) under setting [4] is not above 50 nM.

`COCc1cnc2ccc(-c3cnc(OC)c(NS(=O)(=O)c4sc(C)nc4C)c3)cn2c1=O` [compound 239, N-(2-methoxy-5-(3-(methoxymethyl)-4-oxo-4H-pyrido[1,2-a]pyrimidin-7-yl)pyridin-3-yl)-2,4-dimethylthiazolyl-5-sulfamide]: the IC50 under setting [3] is not above 50 nM.

Take `CCc1ncc(-c2ccc3nccc(=O)n3c2)cc1NS(=O)(=O)c1ccccc1F` [compound 17]: the inhibition at 1 µM runs as follows: under setting [1], 81.1%; under setting [2], 34.1%.

On to `COc1ncc(-c2ccc3nccc(=O)n3c2)cc1NS(=O)(=O)c1sccc1C` [compound 37], for which the inhibition at 0.5 µM is, setting by setting: under setting [1], 95.8%; under setting [2], 90.3%. Also, the IC50 runs as follows: under setting [3], not above 50 nM; under setting [4], 100 to 250 nM.

In the case of `COc1ncc(-c2ccc3ncc(OC)c(=O)n3c2)cc1NS(=O)(=O)c1ccc(F)cc1C` [compound 106], the inhibition at 0.5 µM under setting [1] was determined as 96.2% and the inhibition at 0.5 µM under setting [2] is 91.8%. The IC50 under setting [3] was not above 50 nM and the half-maximal inhibitory concentration (IC50) under setting [4] was in the range of 50 to 100 nM.

`COc1ncc(-c2ccc3ncc(OC4CCC(OC)CC4)c(=O)n3c2)cc1NS(=O)(=O)c1sc(C)nc1C` (stereo not shown) [compound 207]: under setting [3], the IC50 lay in the range of 50 to 100 nM.

For the compound `COc1ncc(-c2ccc3nccc(=O)n3c2)cc1NS(=O)(=O)c1cccc(F)c1` [compound 3], the inhibition at 1 µM under setting [1] came to 95.9% and the inhibition at 1 µM under setting [2] is 52.4%. The IC50 runs as follows: under setting [3], 50 to 100 nM; under setting [4], 50 to 100 nM.

Turning to `COc1ncc(-c2cn3c(=O)ccnc3cc2C)cc1NS(=O)(=O)c1cccc(F)c1` [compound 124], the inhibition at 0.5 µM under setting [1] was -48% and the inhibition at 0.5 µM under setting [2] came to 2.8%.

For the compound `COc1ncc(-c2ccc3nccc(=O)n3c2)cc1NS(=O)(=O)c1ccc(C)nc1` [compound 32], the inhibition at 0.5 µM under setting [1] turned out to be 75.1% and the inhibition at 0.5 µM under setting [2] was determined as 84.2%. For the same compound, the IC50 reads like this: under setting [3], 100 to 250 nM; under setting [4], 100 to 250 nM.

Take `COc1ncc(-c2ccc3ncc(Cl)c(=O)n3c2)cc1NS(=O)(=O)c1sccc1C` [compound 143]: the inhibition at 0.5 µM reads like this: under setting [1], 95.7%; under setting [2], 87.7%. Moreover, the IC50 is, setting by setting: under setting [3], not above 50 nM; under setting [4], not above 50 nM.

For `COc1ncc(-c2ccc3ncc(OCCOC4CC4)c(=O)n3c2)cc1NS(=O)(=O)c1sc(C)nc1C` [compound 204], under setting [3], the IC50 was not above 50 nM.

With `COc1ncc(-c2cn3c(=O)ccnc3cc2F)cc1NS(=O)(=O)c1cccc(F)c1` [compound 115], the inhibition at 0.5 µM by setting is: under setting [1], 43.6%; under setting [2], 6.5%.

With `COc1ncc(-c2ccc3ncc(OCC4CCOCC4)c(=O)n3c2)cc1NS(=O)(=O)c1sc(C)nc1C` [compound 198], under setting [3], the IC50 was not above 50 nM.

On to `COc1ncc(-c2ccc3ncc(OC4COC4)c(=O)n3c2)cc1NS(=O)(=O)c1sc(C)nc1C` [compound 203], for which the IC50 under setting [3] was not above 50 nM.

Take `COCCOCCOc1cnc2ccc(-c3cnc(OC)c(NS(=O)(=O)c4sc(C)nc4C)c3)cn2c1=O` [compound 191]: the IC50 under setting [3] is not above 50 nM.

Take `COCCOc1cnc2ccc(-c3cnc(OC)c(NS(=O)(=O)c4sc(OC)nc4C)c3)cn2c1=O` [compound 195]: the half-maximal inhibitory concentration (IC50) under setting [3] was not above 50 nM.

Turning to `COc1ncc(-c2ccc3nc(C)cc(=O)n3c2)cc1NS(=O)(=O)c1cc(F)ccc1F` [compound 226], the inhibition at 0.5 µM by setting is: under setting [1], 14.8%; under setting [2], 4.6%.

With `COc1ncc(-c2ccc3nccc(=O)n3c2)cc1NS(=O)(=O)c1ccc(C#N)cc1` [compound 21], the inhibition at 1 µM came out at 94.1% under setting [1] and 91.2% under setting [2]. Also, the IC50 under setting [3] was 50 to 100 nM and the 50% inhibitory concentration (IC50) under setting [4] was in the range of 100 to 250 nM.

Turning to `COc1ncc(-c2ccc3n[nH]c(=O)n3c2)cc1NS(=O)(=O)c1ccc(F)cc1F` [compound 235], the IC50 under setting [3] was 100 to 250 nM.

With `COc1ncc(-c2cn3c(=O)ccnc3cc2F)cc1NS(=O)(=O)c1ccc(F)cc1Cl` [compound 117], the inhibition at 0.5 µM by setting is: under setting [1], 63.7%; under setting [2], 16.6%.

Take `COc1ncc(-c2ccc3ncc(NS(C)(=O)=O)c(=O)n3c2)cc1NS(=O)(=O)c1ccc(F)cc1F` [compound 98]: under setting [3], the IC50 was more than 250 nM.

On to `COc1ncc(-c2ccc3nn(C)c(=O)n3c2)cc1NS(=O)(=O)c1ccc(F)cc1F` [compound 234], for which the IC50 under setting [3] was more than 250 nM.

Consider `COc1ncc(-c2ccc3ncc(OCCCF)c(=O)n3c2)cc1NS(=O)(=O)c1sc(C)nc1C` [compound 201], for which the IC50 under setting [3] is not above 50 nM.

On to `COc1ncc(-c2ccc3ncc(N)c(=O)n3c2)cc1NS(=O)(=O)c1ccc(F)cc1C` [compound 89], for which the inhibition at 0.5 µM stood at 93% under setting [1] and 88.1% under setting [2]. Besides, the IC50 by setting is: under setting [3], not above 50 nM; under setting [4], 100 to 250 nM.

`CCc1ccc(S(=O)(=O)Nc2cc(-c3ccc4ncc(OCCOC)c(=O)n4c3)cnc2OC)c(F)c1` [compound 281]: the IC50 under setting [3] was not above 50 nM.

With `COc1ncc(-c2cn3c(=O)ccnc3cc2C)cc1NS(=O)(=O)c1ccc(C(F)(F)F)cc1` [compound 130], the inhibition at 0.5 µM by setting is: under setting [1], 2.3%; under setting [2], 2.6%.

With `COc1ncc(-c2ccc3nccc(=O)n3n2)cc1NS(=O)(=O)c1ccccc1Cl` [compound 74], the inhibition at 0.5 µM is, setting by setting: under setting [1], 74.1%; under setting [2], 26%.

Turning to `COCCCOc1ncc(-c2ccc3ncc(Cl)c(=O)n3c2)cc1NS(=O)(=O)c1ccc(F)cc1F` [compound 232], the IC50 under setting [3] was more than 250 nM.

Take `COc1ncc(-c2cn3c(=O)ccnc3cc2C)cc1NS(=O)(=O)c1ccc(C#N)cc1` [compound 129]: the inhibition at 0.5 µM was -24.2% under setting [1] and 1.2% under setting [2].

In the case of `COc1ncc(-c2cn3c(=O)ccnc3cn2)cc1NS(=O)(=O)c1ccc(F)cc1` [compound 43], the inhibition at 0.5 µM runs as follows: under setting [1], 17.8%; under setting [2], 16.2%.

Regarding `COc1ncc(-c2ccc3ncc(Cl)c(=O)n3c2)cc1NS(=O)(=O)c1cccc(Cl)c1` [compound 141], the inhibition at 0.5 µM was 96.1% under setting [1] and 88.1% under setting [2]. For the same compound, the IC50 reads like this: under setting [3], not above 50 nM; under setting [4], not above 50 nM.

For `CNc1nc(C)c(S(=O)(=O)Nc2cc(-c3ccc4ncc(OCCOC)c(=O)n4c3)cnc2OC)s1` [compound 189], the IC50 under setting [3] was not above 50 nM.

In the case of `CNc1ncc(-c2ccc3ncc(OCCOC)c(=O)n3c2)cc1NS(=O)(=O)c1ccc(F)cc1F` [compound 215], the IC50 under setting [3] is more than 250 nM.

On to `COc1ncc(-c2ccc3ncc(Cl)c(=O)n3c2)cc1NS(=O)(=O)c1cnc(N)s1` [compound 161], for which the inhibition at 0.25 µM came out at 79.5% under setting [1] and 41% under setting [2]. Moreover, the IC50 by setting is: under setting [3], 50 to 100 nM; under setting [4], more than 250 nM.

For `COc1ncc(-c2cn3c(=O)ccnc3cn2)cc1NS(=O)(=O)c1cc(F)ccc1F` [compound 41], the inhibition at 0.5 µM was -10.1% under setting [1] and 0.1% under setting [2].

In the case of `CCOc1cnc2ccc(-c3cnc(OC)c(NS(=O)(=O)c4ccc(F)cc4F)c3)cn2c1=O` [compound 171, N-(5-(3-ethoxy-4-oxo-4H-pyrido[1,2-a]pyrimidin-7-yl)-2-methoxypyridin-3-yl)-2,4-difluorobenzsulfamide], the inhibition at 0.25 µM by setting is: under setting [1], 76.3%; under setting [2], 73.4%. For the same compound, the IC50 reads like this: under setting [3], 50 to 100 nM; under setting [4], 100 to 250 nM.

Consider `COCCOc1cnc2ccc(-c3cnc(OC)c(NS(=O)(=O)c4ccc(F)cc4C(F)(F)F)c3)cn2c1=O` [compound 278], for which the IC50 under setting [3] is not above 50 nM.

For the compound `COc1ncc(-c2ccc3ncc(Cl)c(=O)n3c2)cc1NS(=O)(=O)c1cccc(C)c1` [compound 140], the inhibition at 0.5 µM under setting [1] was determined as 94.8% and the inhibition at 0.5 µM under setting [2] is 90.5%. For the same compound, the IC50 by setting is: under setting [3], not above 50 nM; under setting [4], 50 to 100 nM.

`COCCOc1cnc2ccc(-c3cnc(OC)c(NS(=O)(=O)c4cc(Cl)c(F)cc4F)c3)cn2c1=O` [compound 273]: the IC50 under setting [3] was 100 to 250 nM.

Regarding `COc1ncc(-c2ccc3ncc(OC4CCC(OC)CC4)c(=O)n3c2)cc1NS(=O)(=O)c1sc(C)nc1C` (stereo not shown) [compound 208], the half-maximal inhibitory concentration (IC50) (MCF-7 cells, read-out: IC50 p-AKT) is not above 50 nM.

`COc1ncc(-c2ccc3nc(C)cc(=O)n3c2)cc1NS(=O)(=O)c1ccc(F)cc1C` [compound 229]: the inhibition at 0.5 µM was 31.7% under setting [1] and 1.4% under setting [2].

The record behind these values is patent US9868737B2, “Pyridino[1,2-A]pyrimidone analogue used as MTOR/P13K inhibitor” (CISEN PHARMACEUTICAL CO., LTD., priority 2014, dated 2018).
